In US8258141B2, “Organic compounds” (Novartis AG, priority 2006, dated 2012) one finds Ki data, which are given here for 5 molecules.

Counter-ions that a name gives are not always drawn.

As usually defined, the Ki is a measure of affinity in units of concentration, obtained from inhibition or displacement.

In the experiment the target is adenosine A2A receptor (Homo sapiens, UniProt P29274). Briefly: Adenosine A2A receptor agonist assay, method of L. J. Murphree et al, Molecular Pharmacology 61, 455-462 (2002). Type of experiment: binding. The text has this: Compounds of formula (I) and formula (II) and their pharmaceutically acceptable salts are useful as pharmaceuticals. In particular, they activate the adenosine A2A receptor, i.e. they act as A2A receptor agonists.
Sequence of adenosine A2A receptor (P29274 whole entry): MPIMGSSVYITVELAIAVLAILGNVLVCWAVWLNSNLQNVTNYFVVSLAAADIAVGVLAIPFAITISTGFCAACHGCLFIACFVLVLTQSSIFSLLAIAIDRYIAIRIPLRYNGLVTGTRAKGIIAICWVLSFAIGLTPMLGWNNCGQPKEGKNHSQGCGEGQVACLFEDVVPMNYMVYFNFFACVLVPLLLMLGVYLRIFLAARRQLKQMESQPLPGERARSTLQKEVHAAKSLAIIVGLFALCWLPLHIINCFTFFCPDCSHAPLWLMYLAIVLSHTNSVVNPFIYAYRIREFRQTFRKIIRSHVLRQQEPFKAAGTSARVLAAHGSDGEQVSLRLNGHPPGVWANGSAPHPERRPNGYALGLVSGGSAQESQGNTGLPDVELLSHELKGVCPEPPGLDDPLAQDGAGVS

Molecule `O=C(CO)N[C@H]1C[C@@H](n2cnc3c(NCC(c4ccccc4)c4ccccc4)nc(C(=O)NCCNC(=O)NC4CCN(c5ccccn5)CC4)nc32)[C@H](O)[C@@H]1O` [Example 14, 9-[(1R,2S,3R,4S)-2,3-Dihydroxy-4-(2-hydroxy-acetylamino)-cyclopentyl]-6-(2,2-diphenyl-ethylamino)-9H-purine-2-carboxylic acid {2-[3-(3,4,5,6-tetrahydro-2H-[1,2′]bipyridinyl-4-yl)-ureido]-ethyl}-amide trifluoroacetate] showed a Ki of 2.5 nM. `CCC(=O)N[C@H]1C[C@@H](n2cnc3c(NCC(c4ccccc4)c4ccccc4)nc(N4CC[C@@H](NC(=O)N[C@@H]5CCN(C(=O)c6ccc(C(=O)OC)cc6)C5)C4)nc32)[C@H](O)[C@@H]1O` [Example 36, 4-[(R)-3-(3-{(R)-1-[9-((1R,2S,3R,4S)-2,3-Dihydroxy-4-propionylamino-cyclopentyl)-6-(2,2-diphenyl-ethylamino)-9H-purin-2-yl]-pyrrolidin-3-yl}-ureido)-pyrrolidine-1-carbonyl]-benzoic acid methyl ester] yielded an inhibitory constant (Ki) of 3 nM. In the case of `CCC(=O)N[C@H]1C[C@@H](n2cnc3c(NCC(c4ccccc4)c4ccccc4)nc(N4CC[C@@H](NC(=O)Nc5ccc(OCc6ccccc6)cc5)C4)nc32)[C@H](O)[C@@H]1O` [Example 178, N-{(1S,2R,3S,4R)-4-[2-{(R)-3-[3-(4-Benzyloxy-phenyl)-ureido]-pyrrolidin-1-yl}-6-(2,2-diphenyl-ethylamino)-purin-9-yl]-2,3-dihydroxy-cyclopentyl}-propionamide trifluoroacetate] it was 8 nM. For `CCC(=O)N[C@H]1C[C@@H](n2cnc3c(NCC(c4ccccc4)c4ccccc4)nc(N4CC[C@@H](NC(=O)NCc5ccncc5)C4)nc32)[C@H](O)[C@@H]1O` [Example 20, N-((1S,2R,3S,4R)-4-{6-(2,2-diphenyl-ethylamino)-2-[(R)-3-(3-pyridin-4-ylmethyl-ureido)-pyrrolidin-1-yl]-purin-9-yl}-2,3-dihydroxy-cyclopentyl)-propionamide trifluoroacetate] the value was 1.6 nM; for `N[C@@H]1CCN(c2nc(NCC(c3ccccc3)c3ccccc3)c3ncn([C@@H]4C[C@H](NC(=O)CO)[C@@H](O)[C@H]4O)c3n2)C1` [Example 1, N-{(1S,2R,3S,4R)-4-[2-((R)-3-Amino-pyrrolidin-1-yl)-6-(2,2-diphenyl-ethylamino)-purin-9-yl]-2,3-dihydroxy-cyclopentyl}-2-hydroxy-acetamide trifluoroacetate], 8.3 nM.
